Data as given in ChEMBL document CHEMBL4507288 (2021).

Columns and labels:
D(3) dopamine receptor = D(3) dopamine receptor (Homo sapiens, UniProt P35462); assay: GPCRScan assay: inhibition of D3; parameters: radioligand conc. used [nm] 0.5 – 1.8, parental cells HEKT
[1] = molecular target: 5-hydroxytryptamine receptor 2C (Homo sapiens, UniProt P28335); assay: GPCRScan assay: inhibition of 5-HT2C; parameters: radioligand conc. used [nm] 1.0 – 2.5, parental cells HEK T
[2] = molecular target: Serine/threonine-protein kinase TAO2 (Homo sapiens) (UniProt Q9UL54); conditions: Compound concentration 1000.0 nM
[3] = molecular target: Dual specificity mitogen-activated protein kinase kinase 5 (Homo sapiens) (UniProt Q13163); conditions: Compound concentration 1000.0 nM
[4] = system: Phosphatidylinositol 4,5-bisphosphate 3-kinase catalytic subunit alpha isoform (Homo sapiens), P42336 [H1047L]; conditions: Compound concentration 1000.0 nM
[5] = molecular target: ALK tyrosine kinase receptor (Homo sapiens) (UniProt Q9UM73); conditions: Compound concentration 1000.0 nM
[6] = molecular target: RAC-gamma serine/threonine-protein kinase (Homo sapiens) (UniProt Q9Y243); conditions: Compound concentration 1000.0 nM
[7] = molecular target: Serine/threonine-protein kinase Chk1 (Homo sapiens) (UniProt O14757); conditions: Compound concentration 1000.0 nM
[8] = molecular target: Serine/threonine-protein kinase MRCK alpha (Homo sapiens) (UniProt Q5VT25); conditions: Compound concentration 1000.0 nM
Serine/threonine-protein kinase MRCK alpha (Homo sapiens), sequence (Q5VT25 whole entry): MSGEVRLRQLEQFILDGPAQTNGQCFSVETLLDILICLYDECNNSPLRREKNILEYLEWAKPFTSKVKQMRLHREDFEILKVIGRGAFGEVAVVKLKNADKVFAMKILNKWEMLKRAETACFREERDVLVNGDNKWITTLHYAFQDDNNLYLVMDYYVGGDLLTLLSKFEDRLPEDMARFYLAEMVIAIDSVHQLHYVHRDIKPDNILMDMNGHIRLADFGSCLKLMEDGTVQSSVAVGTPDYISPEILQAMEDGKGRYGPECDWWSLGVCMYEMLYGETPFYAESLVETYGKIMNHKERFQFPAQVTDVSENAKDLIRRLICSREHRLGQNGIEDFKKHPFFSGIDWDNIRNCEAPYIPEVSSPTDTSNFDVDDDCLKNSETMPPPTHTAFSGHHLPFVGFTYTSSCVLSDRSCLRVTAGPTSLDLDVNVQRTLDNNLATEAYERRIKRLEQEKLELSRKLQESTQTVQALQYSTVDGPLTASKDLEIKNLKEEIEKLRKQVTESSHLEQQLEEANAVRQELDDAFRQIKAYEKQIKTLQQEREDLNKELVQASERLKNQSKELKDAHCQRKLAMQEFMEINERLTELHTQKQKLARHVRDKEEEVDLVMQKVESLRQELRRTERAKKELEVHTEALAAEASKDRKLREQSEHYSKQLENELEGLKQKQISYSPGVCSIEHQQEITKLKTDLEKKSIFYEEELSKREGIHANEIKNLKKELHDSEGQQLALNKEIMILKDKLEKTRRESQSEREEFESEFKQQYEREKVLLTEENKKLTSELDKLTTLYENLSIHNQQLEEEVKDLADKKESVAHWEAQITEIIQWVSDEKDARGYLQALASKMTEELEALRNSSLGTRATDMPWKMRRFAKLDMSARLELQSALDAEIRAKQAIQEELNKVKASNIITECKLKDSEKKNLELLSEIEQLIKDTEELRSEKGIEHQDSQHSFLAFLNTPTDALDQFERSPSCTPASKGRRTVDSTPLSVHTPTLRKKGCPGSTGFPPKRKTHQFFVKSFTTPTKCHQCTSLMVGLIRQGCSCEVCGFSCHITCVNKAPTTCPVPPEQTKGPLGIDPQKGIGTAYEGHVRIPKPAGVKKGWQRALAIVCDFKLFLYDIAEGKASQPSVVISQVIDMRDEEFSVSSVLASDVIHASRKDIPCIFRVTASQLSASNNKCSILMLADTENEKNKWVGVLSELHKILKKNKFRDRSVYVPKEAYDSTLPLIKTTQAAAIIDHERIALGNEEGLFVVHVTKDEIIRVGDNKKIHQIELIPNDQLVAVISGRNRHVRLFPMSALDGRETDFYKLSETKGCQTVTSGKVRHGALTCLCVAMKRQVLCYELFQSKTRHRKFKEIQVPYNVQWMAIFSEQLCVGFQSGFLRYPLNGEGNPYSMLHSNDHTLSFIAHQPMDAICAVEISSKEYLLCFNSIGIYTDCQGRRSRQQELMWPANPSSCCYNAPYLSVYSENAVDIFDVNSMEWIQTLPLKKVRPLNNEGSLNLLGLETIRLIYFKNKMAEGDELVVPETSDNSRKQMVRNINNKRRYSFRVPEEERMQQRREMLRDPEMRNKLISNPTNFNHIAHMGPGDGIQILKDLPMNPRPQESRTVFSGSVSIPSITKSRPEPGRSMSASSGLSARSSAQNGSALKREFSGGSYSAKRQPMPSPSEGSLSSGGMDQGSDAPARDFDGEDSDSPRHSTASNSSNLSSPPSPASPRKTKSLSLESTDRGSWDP

[9] = molecular target: 3-phosphoinositide-dependent protein kinase 1 (Homo sapiens) (UniProt O15530); conditions: Compound concentration 1000.0 nM
[10] = system: Epidermal growth factor receptor (Homo sapiens), P00533 [UNDEFINED MUTATION]; conditions: Compound concentration 1000.0 nM
[11] = molecular target: Serine/threonine-protein kinase 32B (Homo sapiens) (UniProt Q9NY57); conditions: Compound concentration 1000.0 nM
[12] = molecular target: Serine/threonine-protein kinase Sgk3 (Homo sapiens) (UniProt Q96BR1); conditions: Compound concentration 1000.0 nM
[13] = molecular target: Serine/threonine-protein kinase RIO1 (Homo sapiens) (UniProt Q9BRS2); conditions: Compound concentration 1000.0 nM
[14] = molecular target: Dual specificity protein kinase CLK4 (Homo sapiens) (UniProt Q9HAZ1); conditions: Compound concentration 1000.0 nM
[15] = molecular target: Cyclin-dependent kinase-like 1 (Homo sapiens) (UniProt Q00532); conditions: Compound concentration 1000.0 nM
[16] = molecular target: Serine/threonine-protein kinase TNNI3K (Homo sapiens) (UniProt Q59H18); conditions: Compound concentration 1000.0 nM
[17] = molecular target: Serine/threonine-protein kinase Chk2 (Homo sapiens) (UniProt O96017); conditions: Compound concentration 1000.0 nM
[18] = molecular target: Tyrosine-protein kinase Lyn (Homo sapiens) (UniProt P07948); conditions: Compound concentration 1000.0 nM
[19] = molecular target: MAP kinase-activated protein kinase 5 (Homo sapiens) (UniProt Q8IW41); conditions: Compound concentration 1000.0 nM
[20] = molecular target: MAP kinase-interacting serine/threonine-protein kinase 2 (Homo sapiens) (UniProt Q9HBH9); conditions: Compound concentration 1000.0 nM
[21] = molecular target: cAMP-dependent protein kinase catalytic subunit PRKX (Homo sapiens) (UniProt P51817); conditions: Compound concentration 1000.0 nM
[22] = molecular target: Activin receptor type-1B (Homo sapiens) (UniProt P36896); conditions: Compound concentration 1000.0 nM
[23] = molecular target: Cyclin-dependent kinase 2 homolog (Plasmodium falciparum (isolate 3D7)) (UniProt P61075); conditions: Compound concentration 1000.0 nM
[24] = system: Phosphatidylinositol 4,5-bisphosphate 3-kinase catalytic subunit alpha isoform (Homo sapiens), P42336 [C420R]; conditions: Compound concentration 1000.0 nM
[25] = system: Epidermal growth factor receptor (Homo sapiens), P00533 [G719S]; conditions: Compound concentration 1000.0 nM
[26] = molecular target: Mast/stem cell growth factor receptor Kit (Homo sapiens) (UniProt P10721); conditions: Compound concentration 1000.0 nM
[27] = molecular target: Testis-specific serine/threonine-protein kinase 1 (Homo sapiens) (UniProt Q9BXA7); conditions: Compound concentration 1000.0 nM
[28] = molecular target: Vascular endothelial growth factor receptor 1 (Homo sapiens) (UniProt P17948); conditions: Compound concentration 1000.0 nM
[29] = molecular target: Dual specificity protein kinase TTK (Homo sapiens) (UniProt P33981); conditions: Compound concentration 1000.0 nM
[30] = molecular target: Serine/threonine-protein kinase LATS1 (Homo sapiens) (UniProt O95835); conditions: Compound concentration 1000.0 nM
[31] = system: Tyrosine-protein kinase ABL1 (Homo sapiens), P00519 [F317L]; conditions: Compound concentration 1000.0 nM
[32] = molecular target: Receptor tyrosine-protein kinase erbB-3 (Homo sapiens) (UniProt P21860); conditions: Compound concentration 1000.0 nM
[33] = molecular target: Serine/threonine-protein kinase ULK2 (Homo sapiens) (UniProt Q8IYT8); conditions: Compound concentration 1000.0 nM
[34] = molecular target: Non-receptor tyrosine-protein kinase TYK2 (Homo sapiens) (UniProt P29597); conditions: Compound concentration 1000.0 nM
Non-receptor tyrosine-protein kinase TYK2 (Homo sapiens), sequence (P29597 whole entry): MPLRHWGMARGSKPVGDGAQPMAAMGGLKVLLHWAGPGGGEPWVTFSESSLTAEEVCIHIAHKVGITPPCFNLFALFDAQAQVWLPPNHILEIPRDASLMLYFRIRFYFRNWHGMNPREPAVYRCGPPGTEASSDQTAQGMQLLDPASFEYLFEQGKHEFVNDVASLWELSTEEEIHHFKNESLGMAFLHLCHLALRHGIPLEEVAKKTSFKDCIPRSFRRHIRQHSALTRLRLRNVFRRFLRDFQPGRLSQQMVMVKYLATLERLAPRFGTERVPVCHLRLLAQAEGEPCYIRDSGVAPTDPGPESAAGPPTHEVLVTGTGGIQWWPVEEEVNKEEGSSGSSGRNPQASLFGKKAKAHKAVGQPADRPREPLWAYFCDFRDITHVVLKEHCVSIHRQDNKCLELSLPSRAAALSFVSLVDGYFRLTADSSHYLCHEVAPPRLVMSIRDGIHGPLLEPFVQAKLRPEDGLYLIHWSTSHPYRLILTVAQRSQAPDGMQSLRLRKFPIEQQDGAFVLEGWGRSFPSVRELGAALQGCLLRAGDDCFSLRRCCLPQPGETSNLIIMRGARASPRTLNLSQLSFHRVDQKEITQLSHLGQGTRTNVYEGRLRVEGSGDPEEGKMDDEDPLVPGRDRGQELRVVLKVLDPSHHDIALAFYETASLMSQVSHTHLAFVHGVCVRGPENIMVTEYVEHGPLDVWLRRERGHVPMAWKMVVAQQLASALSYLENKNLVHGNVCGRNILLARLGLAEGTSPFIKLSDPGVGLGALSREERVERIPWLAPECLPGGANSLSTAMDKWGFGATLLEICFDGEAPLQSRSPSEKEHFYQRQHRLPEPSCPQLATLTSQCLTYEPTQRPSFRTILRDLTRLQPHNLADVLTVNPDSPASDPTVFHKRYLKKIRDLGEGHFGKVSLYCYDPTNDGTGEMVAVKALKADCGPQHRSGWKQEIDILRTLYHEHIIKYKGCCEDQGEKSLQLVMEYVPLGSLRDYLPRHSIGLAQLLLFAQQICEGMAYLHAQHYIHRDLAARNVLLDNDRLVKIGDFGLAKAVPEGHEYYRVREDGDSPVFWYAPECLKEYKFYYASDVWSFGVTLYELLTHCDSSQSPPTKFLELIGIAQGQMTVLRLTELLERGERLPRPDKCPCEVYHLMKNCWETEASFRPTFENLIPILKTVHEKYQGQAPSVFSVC

[35] = molecular target: Dual specificity mitogen-activated protein kinase kinase 3 (Homo sapiens) (UniProt P46734); conditions: Compound concentration 1000.0 nM
[36] = molecular target: Dual specificity mitogen-activated protein kinase kinase 4 (Homo sapiens) (UniProt P45985); conditions: Compound concentration 1000.0 nM
Dual specificity mitogen-activated protein kinase kinase 4 (Homo sapiens), sequence (P45985 whole entry): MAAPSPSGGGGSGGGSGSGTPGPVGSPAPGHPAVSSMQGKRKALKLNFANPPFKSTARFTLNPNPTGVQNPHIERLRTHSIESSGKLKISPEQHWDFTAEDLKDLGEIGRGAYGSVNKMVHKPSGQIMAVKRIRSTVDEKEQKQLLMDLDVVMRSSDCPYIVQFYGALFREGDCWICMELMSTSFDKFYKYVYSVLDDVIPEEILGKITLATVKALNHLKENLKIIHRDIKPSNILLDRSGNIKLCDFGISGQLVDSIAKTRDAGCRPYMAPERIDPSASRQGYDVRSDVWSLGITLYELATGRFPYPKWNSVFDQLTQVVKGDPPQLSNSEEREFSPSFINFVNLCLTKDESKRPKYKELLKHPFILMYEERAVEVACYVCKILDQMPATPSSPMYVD

[37] = molecular target: Serine/threonine-protein kinase TAO1 (Homo sapiens) (UniProt Q7L7X3); conditions: Compound concentration 1000.0 nM
[38] = molecular target: Casein kinase II subunit alpha' (Homo sapiens) (UniProt P19784); conditions: Compound concentration 1000.0 nM
[39] = molecular target: Cyclin-dependent kinase 16 (Homo sapiens) (UniProt Q00536); conditions: Compound concentration 1000.0 nM
[40] = system: Receptor-type tyrosine-protein kinase FLT3 (Homo sapiens), P36888 [D835H]; conditions: Compound concentration 1000.0 nM
[41] = molecular target: Focal adhesion kinase 1 (Homo sapiens) (UniProt Q05397); conditions: Compound concentration 1000.0 nM
Focal adhesion kinase 1 (Homo sapiens), sequence (Q05397 2-1052 limits assumed): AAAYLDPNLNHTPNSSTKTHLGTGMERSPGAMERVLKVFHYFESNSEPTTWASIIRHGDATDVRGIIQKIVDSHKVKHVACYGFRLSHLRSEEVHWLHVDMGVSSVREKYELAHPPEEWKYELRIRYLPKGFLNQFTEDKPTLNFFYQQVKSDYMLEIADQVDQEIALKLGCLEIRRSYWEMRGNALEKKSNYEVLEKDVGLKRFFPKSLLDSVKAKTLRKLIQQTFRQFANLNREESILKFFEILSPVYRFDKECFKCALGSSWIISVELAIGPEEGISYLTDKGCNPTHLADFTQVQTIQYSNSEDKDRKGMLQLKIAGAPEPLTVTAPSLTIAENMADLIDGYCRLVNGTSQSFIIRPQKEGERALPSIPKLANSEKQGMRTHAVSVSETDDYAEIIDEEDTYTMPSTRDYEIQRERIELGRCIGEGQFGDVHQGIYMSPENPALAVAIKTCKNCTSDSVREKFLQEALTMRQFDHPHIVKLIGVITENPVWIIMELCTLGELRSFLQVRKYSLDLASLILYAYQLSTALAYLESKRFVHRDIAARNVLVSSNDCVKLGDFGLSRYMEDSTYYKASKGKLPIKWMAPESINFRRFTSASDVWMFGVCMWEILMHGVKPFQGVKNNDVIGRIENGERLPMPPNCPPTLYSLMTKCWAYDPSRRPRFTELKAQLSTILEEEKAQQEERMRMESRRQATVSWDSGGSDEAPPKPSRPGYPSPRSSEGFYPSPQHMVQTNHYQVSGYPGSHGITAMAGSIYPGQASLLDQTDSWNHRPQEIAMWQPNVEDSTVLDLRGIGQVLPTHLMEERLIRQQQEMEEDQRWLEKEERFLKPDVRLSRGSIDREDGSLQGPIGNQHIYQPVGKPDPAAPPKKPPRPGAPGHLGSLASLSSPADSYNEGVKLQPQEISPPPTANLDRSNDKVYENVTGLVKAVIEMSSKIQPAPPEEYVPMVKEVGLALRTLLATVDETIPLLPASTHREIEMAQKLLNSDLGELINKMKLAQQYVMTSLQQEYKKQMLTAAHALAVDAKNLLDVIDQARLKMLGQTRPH

[42] = molecular target: Calcium/calmodulin-dependent protein kinase type II subunit alpha (Homo sapiens) (UniProt Q9UQM7); conditions: Compound concentration 1000.0 nM
[43] = molecular target: Insulin receptor-related protein (Homo sapiens) (UniProt P14616); conditions: Compound concentration 1000.0 nM
[44] = molecular target: Activin receptor type-1-like (Homo sapiens) (UniProt P37023); conditions: Compound concentration 1000.0 nM

5-hydroxytryptamine receptor 2C, sequence (P28335 whole entry): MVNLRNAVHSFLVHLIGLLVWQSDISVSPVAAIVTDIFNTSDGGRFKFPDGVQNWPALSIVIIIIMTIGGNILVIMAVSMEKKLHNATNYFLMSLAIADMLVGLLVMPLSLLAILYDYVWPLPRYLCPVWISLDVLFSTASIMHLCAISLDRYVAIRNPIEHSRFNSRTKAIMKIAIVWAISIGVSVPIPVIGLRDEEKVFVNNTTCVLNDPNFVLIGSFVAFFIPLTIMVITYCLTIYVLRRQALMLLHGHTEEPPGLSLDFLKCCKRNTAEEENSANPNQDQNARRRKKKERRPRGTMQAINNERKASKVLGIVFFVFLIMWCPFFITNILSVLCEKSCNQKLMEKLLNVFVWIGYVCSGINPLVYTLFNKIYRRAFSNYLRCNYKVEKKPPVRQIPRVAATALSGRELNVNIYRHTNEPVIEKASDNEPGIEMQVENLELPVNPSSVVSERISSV

CC(C)(C)OC(=O)N1CCCC1CNC1CCC(c2cc(F)ccc2F)(S(=O)(=O)c2ccc(Cl)cc2)CC1 (stereo not given) [GSI-NC]
516 nM: Ki [1]
710 nM: Ki (D(3) dopamine receptor)

O=S(=O)(NC1CCC(c2cc(F)ccc2F)(S(=O)(=O)c2ccc(Cl)cc2)CC1)C(F)(F)F (stereo not given) [MRK-560]
inactive: residual activity [2] 100% | residual activity [3] 52% | residual activity [5] 100% | residual activity [6] 100% | residual activity [7] 100% | residual activity [8] 91% | residual activity [9] 100% | residual activity [10] 100% | residual activity [11] 100% | residual activity [12] 89% | residual activity [13] 98% | residual activity [14] 84% | residual activity [15] 100% | residual activity [16] 100% | residual activity [17] 100% | residual activity [18] 91% | residual activity [19] 93% | residual activity [20] 57% | residual activity [21] 100% | residual activity [22] 87% | residual activity [23] 100% | residual activity [25] 100% | residual activity [26] 100% | residual activity [27] 100% | residual activity [28] 86% | residual activity [29] 70% | residual activity [30] 100% | residual activity [31] 90% | residual activity [32] 93% | residual activity [33] 100% | residual activity [34] 100% | residual activity [35] 83% | residual activity [36] 76% | residual activity [37] 100% | residual activity [38] 99% | residual activity [39] 68% | residual activity [40] 90% | residual activity [41] 90% | residual activity [42] 100% | residual activity [43] 100% | residual activity [44] 100%
active: residual activity [4] 41% | residual activity [24] 36%
